Measured values from ChEMBL document CHEMBL3885861, “Open TG-GATES”.

Species on record: Rattus norvegicus
Assay: Open TG-GATES - Regimen: Daily Repeat
Format: toxicity, organism-based, Sprague-Dawley
Set-up: regimen Daily Repeat, gender Male, age 6 weeks
Conditions: in vivo, po, 100 mg/kg, route gavage, dose level High; for APTT / Bas / Eos / Fbg / Hb / Ht / Lym / MCH / MCHC / MCV / Mono / Neu / PT / Plat / RBC / Ret / WBC: tissue Blood; for KIDNEY_L / KIDNEY_R / KIDNEY_TOTAL: tissue Kidney; for LIVER: tissue Liver; for A/G / ALP / ALT / AST / BUN / CRE / Ca / Cl / DBIL / GLC / IP / K / LDH / Na / PL / RALB / TBIL / TC / TG / TP / gamma-GTP: tissue Plasma

For `CCCc1cc(=O)[nH]c(=S)[nH]1` [PROPYLTHIOURACIL], the TERMINAL_BW (72 h, time 3 day) was 209.7 g, the APTT (72 h, time 3 day) was 16 s and the Bas (72 h, time 3 day) was 0%. For the same compound, the Eos (72 h, time 3 day) was 0.8%, the Fbg (72 h, time 3 day) was 238.8 mg/dL and the Hb (72 h, time 3 day) was 13.2 g/dL. The Ht (72 h, time 3 day) was 39.6%, the Lym (72 h, time 3 day) was 80.6% and the MCH (72 h, time 3 day) was 22 pg. It also gave an MCHC (72 h, time 3 day) of 33.3%, an MCV (72 h, time 3 day) of 65.9 fL and a Mono (72 h, time 3 day) of 6.4%. For the same compound, the Neu (72 h, time 3 day) was 12.2%, the PT (72 h, time 3 day) was 12.1 s and the Plat (72 h, time 3 day) was 110 x10_4/uL. For the same compound, the RBC (72 h, time 3 day) was 601.4 x10_4/ul, the Ret (72 h, time 3 day) was 7.1% and the WBC (72 h, time 3 day) was 144 x10_2/uL. For the same compound, the KIDNEY_L (72 h, time 3 day) was 0.9 g, the KIDNEY_R (72 h, time 3 day) was 0.9 g and the KIDNEY_TOTAL (72 h, time 3 day) was 1.8 g. It also gave an LIVER (72 h, time 3 day) of 12.2 g, an A/G (72 h, time 3 day) of 1.7 and an ALP (72 h, time 3 day) of 870.8 IU/L. The ALT (72 h, time 3 day) was 36.4 IU/L, the AST (72 h, time 3 day) was 60.4 IU/L and the BUN (72 h, time 3 day) was 20.2 mg/dL. It also gave a CRE (72 h, time 3 day) of 0.5 mg/dL, a Ca (72 h, time 3 day) of 11.5 mg/dL and a Cl (72 h, time 3 day) of 105.4 meq/L. For the same compound, the DBIL (72 h, time 3 day) was 0.008 mg/dL, the GLC (72 h, time 3 day) was 191.6 mg/dL and the IP (72 h, time 3 day) was 7.1 mg/dL. For the same compound, the K (72 h, time 3 day) was 4.5 meq/L, the LDH (72 h, time 3 day) was 181.2 IU/L and the Na (72 h, time 3 day) was 138.6 meq/L. The PL (72 h, time 3 day) was 199.6 mg/dL, the RALB (72 h, time 3 day) was 3.8 g/dL and the TBIL (72 h, time 3 day) was 0.3 mg/dL. For the same compound, the TC (72 h, time 3 day) was 116.2 mg/dL, the TG (72 h, time 3 day) was 94.2 mg/dL and the TP (72 h, time 3 day) was 6.1 g/dL. For the same compound, the gamma-GTP (72 h, time 3 day) was 1 IU/L, the TERMINAL_BW ([…], time 7 day) was 223.8 g and the TERMINAL_BW ([…], time 14 day) was 241.1 g. It also gave a TERMINAL_BW ([…], time 28 day) of 232 g, an APTT ([…], time 7 day) of 15.8 s and a Bas ([…], time 7 day) of 0%. The Eos ([…], time 7 day) was 1%, the Fbg ([…], time 7 day) was 239.2 mg/dL and the Hb ([…], time 7 day) was 13.7 g/dL. It also gave a Ht ([…], time 7 day) of 41.4%, a Lym ([…], time 7 day) of 81.2% and an MCH ([…], time 7 day) of 20.9 pg. It also gave an MCHC ([…], time 7 day) of 33.1%, an MCV ([…], time 7 day) of 63.2 fL and a Mono ([…], time 7 day) of 5.4%. It also gave a Neu ([…], time 7 day) of 12.4%, a PT ([…], time 7 day) of 13 s and a Plat ([…], time 7 day) of 113.5 x10_4/uL. It also gave an RBC ([…], time 7 day) of 655.4 x10_4/ul, a Ret ([…], time 7 day) of 3.8% and a WBC ([…], time 7 day) of 123.8 x10_2/uL. For the same compound, the APTT ([…], time 14 day) was 17 s, the Bas ([…], time 14 day) was 0% and the Eos ([…], time 14 day) was 0%. The Fbg ([…], time 14 day) was 189.4 mg/dL, the Hb ([…], time 14 day) was 14 g/dL and the Ht ([…], time 14 day) was 41.9%. For the same compound, the Lym ([…], time 14 day) was 79.4%, the MCH ([…], time 14 day) was 20.3 pg and the MCHC ([…], time 14 day) was 33.3%. For the same compound, the MCV ([…], time 14 day) was 61.1 fL, the Mono ([…], time 14 day) was 6.2% and the Neu ([…], time 14 day) was 14.4%. For the same compound, the PT ([…], time 14 day) was 13.9 s, the Plat ([…], time 14 day) was 93.2 x10_4/uL and the RBC ([…], time 14 day) was 686.2 x10_4/ul. The Ret ([…], time 14 day) was 1.6%, the WBC ([…], time 14 day) was 99.7 x10_2/uL and the APTT ([…], time 28 day) was 15.3 s. The Bas ([…], time 28 day) was 0%, the Eos ([…], time 28 day) was 0.8% and the Fbg ([…], time 28 day) was 180.4 mg/dL. It also gave a Hb ([…], time 28 day) of 15.5 g/dL, a Ht ([…], time 28 day) of 45.8% and a Lym ([…], time 28 day) of 84.6%. For the same compound, the MCH ([…], time 28 day) was 19.6 pg, the MCHC ([…], time 28 day) was 33.8% and the MCV ([…], time 28 day) was 57.9 fL. It also gave a Mono ([…], time 28 day) of 4.8%, a Neu ([…], time 28 day) of 9.8% and a PT ([…], time 28 day) of 14.8 s. It also gave a Plat ([…], time 28 day) of 86 x10_4/uL, an RBC ([…], time 28 day) of 791.8 x10_4/ul and a Ret ([…], time 28 day) of 0.7%. For the same compound, the WBC ([…], time 28 day) was 66.5 x10_2/uL, the KIDNEY_L ([…], time 7 day) was 0.9 g and the KIDNEY_R ([…], time 7 day) was 0.9 g. For the same compound, the KIDNEY_TOTAL ([…], time 7 day) was 1.8 g, the KIDNEY_L ([…], time 14 day) was 0.9 g and the KIDNEY_R ([…], time 14 day) was 0.9 g. It also gave a KIDNEY_TOTAL ([…], time 14 day) of 1.9 g, a KIDNEY_L ([…], time 28 day) of 0.8 g and a KIDNEY_R ([…], time 28 day) of 0.8 g. The KIDNEY_TOTAL ([…], time 28 day) was 1.6 g, the LIVER ([…], time 7 day) was 12.7 g and the LIVER ([…], time 14 day) was 12 g. The LIVER ([…], time 28 day) was 9.8 g, the A/G ([…], time 7 day) was 1.8 and the ALP ([…], time 7 day) was 839.6 IU/L. The ALT ([…], time 7 day) was 29.6 IU/L, the AST ([…], time 7 day) was 57.8 IU/L and the BUN ([…], time 7 day) was 20.6 mg/dL. For the same compound, the CRE ([…], time 7 day) was 0.5 mg/dL, the Ca ([…], time 7 day) was 11.5 mg/dL and the Cl ([…], time 7 day) was 106.8 meq/L. It also gave a DBIL ([…], time 7 day) of 0.016 mg/dL, a GLC ([…], time 7 day) of 172 mg/dL and an IP ([…], time 7 day) of 6.8 mg/dL. For the same compound, the K ([…], time 7 day) was 4.5 meq/L, the LDH ([…], time 7 day) was 161.4 IU/L and the Na ([…], time 7 day) was 140.2 meq/L. For the same compound, the PL ([…], time 7 day) was 166.6 mg/dL, the RALB ([…], time 7 day) was 4.3 g/dL and the TBIL ([…], time 7 day) was 0.3 mg/dL. For the same compound, the TC ([…], time 7 day) was 101.6 mg/dL, the TG ([…], time 7 day) was 79.6 mg/dL and the TP ([…], time 7 day) was 6.7 g/dL. It also gave a gamma-GTP ([…], time 7 day) of 1.2 IU/L, an A/G ([…], time 14 day) of 1.8 and an ALP ([…], time 14 day) of 489.4 IU/L. For the same compound, the ALT ([…], time 14 day) was 27.8 IU/L, the AST ([…], time 14 day) was 56.4 IU/L and the BUN ([…], time 14 day) was 23.4 mg/dL. It also gave a CRE ([…], time 14 day) of 0.7 mg/dL, a Ca ([…], time 14 day) of 11.4 mg/dL and a Cl ([…], time 14 day) of 107.4 meq/L. The DBIL ([…], time 14 day) was 0.016 mg/dL, the GLC ([…], time 14 day) was 176.4 mg/dL and the IP ([…], time 14 day) was 6.3 mg/dL. The K ([…], time 14 day) was 4 meq/L, the LDH ([…], time 14 day) was 152.8 IU/L and the Na ([…], time 14 day) was 141.8 meq/L. The PL ([…], time 14 day) was 144.8 mg/dL, the RALB ([…], time 14 day) was 4.4 g/dL and the TBIL ([…], time 14 day) was 0.2 mg/dL. For the same compound, the TC ([…], time 14 day) was 94.2 mg/dL, the TG ([…], time 14 day) was 32.6 mg/dL and the TP ([…], time 14 day) was 7 g/dL. The gamma-GTP ([…], time 14 day) was 1.6 IU/L, the A/G ([…], time 28 day) was 2 and the ALP ([…], time 28 day) was 528 IU/L. For the same compound, the ALT ([…], time 28 day) was 34 IU/L, the AST ([…], time 28 day) was 65.4 IU/L and the BUN ([…], time 28 day) was 26.8 mg/dL. It also gave a CRE ([…], time 28 day) of 0.7 mg/dL, a Ca ([…], time 28 day) of 10.8 mg/dL and a Cl ([…], time 28 day) of 108 meq/L. It also gave a DBIL ([…], time 28 day) of 0.054 mg/dL, a GLC ([…], time 28 day) of 162 mg/dL and an IP ([…], time 28 day) of 5.5 mg/dL. For the same compound, the K ([…], time 28 day) was 4.1 meq/L, the LDH ([…], time 28 day) was 121.8 IU/L and the Na ([…], time 28 day) was 143.6 meq/L. It also gave a PL ([…], time 28 day) of 153 mg/dL, an RALB ([…], time 28 day) of 4.5 g/dL and a TBIL ([…], time 28 day) of 0.2 mg/dL. It also gave a TC ([…], time 28 day) of 101.2 mg/dL, a TG ([…], time 28 day) of 34.6 mg/dL and a TP ([…], time 28 day) of 6.8 g/dL. It also gave a gamma-GTP ([…], time 28 day) of 2.8 IU/L.
